The source of these data is patent US20260373103A1, “COMPOSITIONS AND METHODS FOR PREVENTING CARDIOMYOPATHY” (OHIO STATE INNOVATION FOUNDATION, priority 2022, published 2026).

The test system of assay [1] is wild type MEFs. Nature of the assay: Mitochondrial morphology, confocal imaging. Format: cell-based, mouse. The conditions noted are these: ST-539 3 or 10 μg/ml, 24 h. The protocol: (§1) HeLa cells and mouse embryonic fibroblasts (MEFs) were grown in Dulbecco's minimum essential medium (DMEM) with 10% fetal bovine serum (FBS) supplemented with penicillin-streptomycin. HeLa Parkin, PINK1 KO cells, WT and MFN2 KO cells were previously described. Cells stably expressing USP30 were generated using lentiviral vectors of pLVX-Puro-Myc-USP30. The USP30 plasmid was obtained from Addgene. The plasmid was transferred into a lentiviral vector and viral particles were prepared by transiently transfecting HEK293T using standard methods. For the drug treatment experiments, cells were incubated in medium containing a mixture of 5 μM oligomycin and 5 μM antimycin A (A/O; see figures for treatment times). In 18 h treatment, A/O were used in combination with 10 μM quinolyl-valyl-O-methylaspartyl-[−2,6-difluorophenoxy]-methyl ketone (QVD), a broad-spectrum caspase inhibitor. ST51000539 (ST-539) was purchased from Tim Tec, Inc. Other chemicals were from Sigma-Aldrich (St. Louis, MO, USA). For FACS analysis, cells stably expressing mt-Keima were incubated in medium containing a mixture of […] antimycin A for 1.5 h. Prior to A/O treatment, cultures were treated with DMSO or ST-539 at 3 μg/ml. Cells were trypsinized, washed once with PBS buffer and then resuspended into 500 μl of PBS prior to analysis using a BD Fortessa flow cytometer as previously described.

The test system of assay [2] is Mfn2^−/− MEF cells. Nature of the assay: Mitochondrial morphology, confocal imaging. Format: cell-based, mouse. The settings on record: 3 or 10 μg/ml ST-539, 24 h. The protocol: as §1
Assay [3] relates to TIM23. Nature of the assay: TIM23 protein level/degradation after A/O, immunoblotting. It is filed as cell-based. The settings on record: ST-539; HeLa-Parkin/USP30, A/O 18 h. The protocol:
(§2) HeLa cells and mouse embryonic fibroblasts (MEFs) were grown in Dulbecco's minimum essential medium (DMEM) with 10% fetal bovine serum (FBS) supplemented with penicillin-streptomycin. HeLa Parkin, PINK1 KO cells, WT and MFN2 KO cells were previously described. Cells stably expressing USP30 were generated using lentiviral vectors of pLVX-Puro-Myc-USP30. The USP30 plasmid was obtained from Addgene. The plasmid was transferred into a lentiviral vector and viral particles were prepared by transiently transfecting HEK293T using standard methods. For the drug treatment experiments, cells were incubated in medium containing a mixture of 5 μM oligomycin and 5 μM antimycin A (A/O; see figures for treatment times). In 18 h treatment, A/O were used in combination with 10 μM quinolyl-valyl-O-methylaspartyl-[−2,6-difluorophenoxy]-methyl ketone (QVD), a broad-spectrum caspase inhibitor. […]
The enzymatic activity of Parkin is to function as an E3 ubiquitin ligase. […] We then employed this cellular assay to monitor TOM20 turnover, and analyzed compounds known to be associated with the ubiquitination process for inhibitors of USP30. […] Initially to assess mitophagy in cells, we monitored the degradation of the inner membrane protein, the translocase of the inner membrane 23 (TIM23), by immunoblotting (FIG. 5A). […]
On the technique in general: A western blot detects proteins with antibodies after separation by electrophoresis.

The test system of assay [4] is USP30. The settings on record: in vitro; compound and similar structures; cited from earlier work.
Assay [5] concerns HeLa-Parkin cells and HeLa-Parkin cells that express USP30. Nature of the assay: Mitophagy in cells by mt-Keima fluorescence FACS. Format: cell-based. The protocol: as §2, with “inhibitor. ST51000539 (ST-539) was purchased from Tim Tec, Inc. Other chemicals were from Sigma-Aldrich (St. Louis, MO, USA).” for “inhibitor.”
We employed a sensitive fluorescence-activated cell sorting (FACS)-based method for detecting mitophagy using the pH-dependent fluorescent protein Keima. […] We exploited the mt-Keima probe and measured mitophagy in HeLa-Parkin cells and HeLa-Parkin cells that express USP30. […]

`CC(C)(C)NS(=O)(=O)c1cccc2c(NC(=O)C(Cc3ccccc3)NC(=O)c3ccccc3)cccc12` (stereo not drawn) [ST-539]: the mitochondrial morphology result in assay [1] is on record as “failed to change the mitochondrial morphology”. Further, the elongation of mitochondria result in assay [2] is reported as “did not induce the elongation of mitochondria significantly”. In assay [3], the TIM23 degradation result is “restored TIM23 and TOM40 degradation”. For the same molecule, the “USP30 enzyme function inhibition” value in assay [4] is on record as “selectively inhibit USP30 enzyme function in vitro”. Moreover, in assay [5] (ST-539 3 μg/ml, HeLa-Parkin cells expressing USP30), the “A/O induced mitophagy (mt-Keima FACS)” value is “restored A/O induced mitophagy”. For the same molecule, in assay [5] (cellular studies, ST-539, no stress), the “mitophagy in the absence of mitochondrial stress” value was “minimal change in mitophagy”.
